Reference: PMC11396129, “Oxindole–benzothiazole hybrids as CDK2 inhibitors and anticancer agents: design, synthesis and biological evaluation” (BMC Chemistry, 2024)

How the values were obtained:
[1] = tested on: NCI 60 cancer cell line panel; assay: NCI 60 panel growth inhibition (SRB), whole panel; format: cell-based, human; conditions: mean over NCI 60 panel, 10 μM
How it was run: (§1)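 Percent growth per concentration, normalised to Tz and control wells, yields three dose-response parameters including TGI (Ti = Tz). Where activity is not reached or is exceeded, the value is reported as greater or less than the tested extreme.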

[2] = tested on: SF-268; assay: NCI 60 panel growth inhibition (SRB), CNS cancer; format: cell-based, human; conditions: SF-268, 10 μM
How it was run: as §1

[3] = tested on: SF-539; assay: NCI 60 panel growth inhibition (SRB), CNS cancer; format: cell-based, human; conditions: SF-539, 10 μM
How it was run: as §1

[4] = tested on: SF-295; assay: NCI 60 panel growth inhibition (SRB), CNS cancer; format: cell-based, human; conditions: SF-295, 10 μM
How it was run: as §1

[5] = tested on: SNB-19; assay: NCI 60 panel growth inhibition (SRB), CNS cancer; format: cell-based, human; conditions: SNB-19, 10 μM
How it was run: as §1

[6] = tested on: SNB-75; assay: NCI 60 panel growth inhibition (SRB), CNS cancer; format: cell-based, human; conditions: SNB-75, 10 μM
How it was run: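 Selected compounds progressed from a single-dose mean-graph screen to five-concentration testing. Percentage growth, with negative values indicating cell kill below Tz, was computed per level, giving TGI among three parameters.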

[7] = tested on: U251; assay: NCI 60 panel growth inhibition (SRB), CNS cancer; format: cell-based, human; conditions: U251, 10 μM
How it was run: as §1

[8] = tested on: SK-MEL-2; assay: NCI 60 panel growth inhibition (SRB), melanoma; format: cell-based, human; conditions: SK-MEL-2, 10 μM
How it was run: as §1

[9] = tested on: 786-0; assay: NCI 60 panel growth inhibition (SRB), renal cancer; format: cell-based, human; conditions: 786-0, 10 μM
How it was run: as §1

[10] = tested on: SN12C; assay: NCI 60 panel growth inhibition (SRB), renal cancer; format: cell-based, human; conditions: 10 μM
How it was run: as §1

[11] = tested on: A498; assay: NCI 60 panel growth inhibition (SRB), renal cancer; format: cell-based, human; conditions: A498, 10 μM
How it was run: as §1

[12] = tested on: CAKI-1; assay: NCI 60 panel growth inhibition (SRB), renal cancer; format: cell-based, human; conditions: CAKI-1, 10 μM
How it was run: as §1

[13] = tested on: ACHN; assay: NCI 60 panel growth inhibition (SRB), renal cancer; format: cell-based, human; conditions: 10 μM
How it was run: as §1

[14] = tested on: HT29; assay: NCI 60 panel growth inhibition (SRB), colon cancer; format: cell-based, human; conditions: HT29, 10 μM
How it was run: as §1

[15] = tested on: OVCAR-4; assay: NCI 60 panel growth inhibition (SRB), ovarian cancer; format: cell-based, human; conditions: OVCAR-4, 10 μM
How it was run: as §1

[16] = tested on: OVCAR-3; assay: as above; format: cell-based, human; conditions: OVCAR-3, 10 μM
How it was run: as §1

[17] = tested on: NCI/ADR-RES; assay: as above; format: cell-based, human; conditions: 10 μM
How it was run: as §1

[18] = tested on: OVCAR-5; assay: as above; format: cell-based, human; conditions: OVCAR-5, 10 μM
How it was run: as §1

[19] = tested on: OVCAR-8; assay: as above; format: cell-based, human; conditions: OVCAR-8, 10 μM
How it was run: as §1

[20] = tested on: IGROV1; assay: as above; format: cell-based, human; conditions: IGROV1, 10 μM
How it was run: as §1

[21] = tested on: SK-OV-3; assay: as above; format: cell-based, human; conditions: SK-OV-3, 10 μM
How it was run: as §1

[22] = tested on: RPMI-8226; assay: NCI 60 panel growth inhibition (SRB), leukemia; format: cell-based, human; conditions: RPMI-8226, 10 μM
How it was run: as §1

[23] = tested on: K-562; assay: NCI 60 panel growth inhibition (SRB), leukemia; format: cell-based, human; conditions: K-562, 10 μM
How it was run: as §1

[24] = tested on: HL-60(TB); assay: NCI 60 panel growth inhibition (SRB), leukemia; format: cell-based, human; conditions: HL-60(TB), 10 μM
How it was run: as §1

[25] = tested on: SR; assay: NCI 60 panel growth inhibition (SRB), leukemia; format: cell-based, human; conditions: 10 μM
How it was run: as §1

[26] = tested on: MOLT-4; assay: NCI 60 panel growth inhibition (SRB), leukemia; format: cell-based, human; conditions: MOLT-4, 10 μM
How it was run: as §1

[27] = tested on: CCRF-CEM; assay: NCI 60 panel growth inhibition (SRB), leukemia; format: cell-based, human; conditions: 10 μM
How it was run: as §1

[28] = molecular target: T1, CDK2 (Homo sapiens, UniProt P24941); assay: CDK2 kinase assay (BPS kit, Kinase-Glo Max); format: biochemical; conditions: mean of two independent experiments ± SD
T1 construct: purchased BPS Biosciences 79599

SMILES	GI% [2]	GI% [3]	GI% [4]	GI% [5]	GI% [6]	GI% [7]	GI% [9]	GI% [10]	GI% [11]	GI% [12]	GI% [13]	GI% [15]	GI% [16]	GI% [17]	GI% [18]	GI% [19]	GI% [20]	GI% [21]	GI% [22]	GI% [23]	further results
COc1cccc(-c2nc3ccccc3s2)c1OCC(=O)NN=C1C(=O)Nc2ccc(Cl)cc21 [Compound 9k, 2-(2-(Benzo[d]thiazol-2-yl)-6-methoxyphenoxy)-N′-(5-chloro-2-oxoindolin-3-ylidene)acetohydrazide]	– (GI% < 5%)	30.36%	38.31%	– (GI% < 5%)	– (GI% < 5%)	– (GI% < 5%)	22.12%	14.00%	– (GI% < 5%)	39.78%	26.60%	13.16%	– (GI% < 5%)	20.56%	8.99%	12.69%	– (GI% < 5%)	– (GI% < 5%)	29.96%	29.20%	Mean GI% [1]: 14.92%; GI% [8]: 12.78%; GI% [14]: 14.83%; GI% [24]: 6.09%; GI% [25]: 17.83%; GI% [26]: 43.70%; GI% [27]: 24.47%; melting point: 263 to 265 °C
O=C(COc1ccccc1-c1nc2ccccc2s1)NN=C1C(=O)Nc2ccc(Cl)cc21 [Compound 9e, 2-(2-(Benzo[d]thiazol-2-yl)phenoxy)-N′-(5-chloro-2-oxoindolin-3-ylidene)acetohydrazide]	– (GI% < 5%)	– (GI% < 5%)	– (GI% < 5%)	– (GI% < 5%)	– (GI% < 5%)	– (GI% < 5%)	– (GI% < 5%)	8.28%	– (GI% < 5%)	6.21%	18.45%	– (GI% < 5%)	– (GI% < 5%)	6.89%	– (GI% < 5%)	– (GI% < 5%)	– (GI% < 5%)	– (GI% < 5%)	– (GI% < 5%)	– (GI% < 5%)	GI% [8]: – (GI% < 5%); GI% [14]: – (GI% < 5%); GI% [24]: – (GI% < 5%); GI% [25]: 6.46%; GI% [26]: – (GI% < 5%); GI% [27]: –^a (GI% < 5%); melting point: 265 to 267 °C
O=C(COc1ccccc1-c1nc2ccccc2s1)NN=C1C(=O)Nc2ccc(Br)cc21 [Compound 9f, 2-(2-(Benzo[d]thiazol-2-yl)phenoxy)-N′-(5-bromo-2-oxoindolin-3-ylidene)acetohydrazide]	45.84%	110.59%	32.61%	81.08%	84.86%	86.92%	101.23%	67.11%	12.61%	51.85%	64.71%	90.58%	81.63%	49.76%	– (GI% < 5%)	71.28%	42.62%	17.03%	29.01%	22.52%	Mean GI% [1]: 43.78%; IC50 [28]: 0.2 ± 0.035 µM; GI% [14]: – (GI% < 5%); GI% [24]: 29.39%; GI% [25]: 43.03%; GI% [26]: 36.74%; GI% [27]: 21.91%; melting point: 261 to 263 °C
Cc1ccc2c(c1)C(=NNC(=O)COc1ccccc1-c1nc3ccccc3s1)C(=O)N2 [Compound 9b, 2-(2-(Benzo[d]thiazol-2-yl)phenoxy)-N′-(5-methyl-2-oxoindolin-3-ylidene)acetohydrazide]	43.82%	76.88%	44.34%	74.25%	54.28%	56.51%	57.65%	61.93%	5.48%	41.90%	52.92%	99.49%	79.13%	71.87%	7.29%	57.37%	35.91%	15.84%	30.53%	20.57%	Mean GI% [1]: 44.28%; IC50 [28]: 0.7 ± 0.013 µM; GI% [24]: 8.38%; GI% [25]: 18.71%; GI% [26]: 29.12%; GI% [27]: 23.64%; melting point: 251 to 253 °C
COc1cccc(-c2nc3ccccc3s2)c1OCC(=O)NN=C1C(=O)Nc2ccc(Br)cc21 [Compound 9l, 2-(2-(Benzo[d]thiazol-2-yl)-6-methoxyphenoxy)-N′-(5-bromo-2-oxoindolin-3-ylidene)acetohydrazide]	8.60%	9.75%	33.14%	– (GI% < 5%)	10.42%	– (GI% < 5%)	16.93%	16.14%	– (GI% < 5%)	40.19%	22.74%	11.40%	– (GI% < 5%)	19.73%	– (GI% < 5%)	10.38%	11.35%	– (GI% < 5%)	25.41%	18.70%	Mean GI% [1]: 12.52%; GI% [8]: 9.60%; GI% [14]: 9.08%; GI% [24]: – (GI% < 5%); GI% [25]: 16.68%; GI% [26]: 36.40%; GI% [27]: 15.16%; melting point: 266 to 268 °C
